Data from US10688197B2, “Non-alcoholic fatty liver regulator 14-3-3 protein” (Korea University Research and Business Foundation, priority 2015, dated 2020).

Key:
HepG2 cells [1] = assay: mRNA expression by PCR in HepG2 cells; format: cell-based, human; conditions: for mRNA expression of SREBP-1c and FAT/CD36: HepG2, overexpression, 200 μM oleic acid 72 hours, FIG. 7A
Procedure: For mRNA extraction, the corresponding cells were lysed with 1 ml/well of TRIzol (Invitrogen), 200 μl of chloroform was added thereto and mixed well, the resultant cells were maintained at room temperature for 5 minutes and then centrifuged at 12,000×g and 4° C. for 15 minutes, the obtained supernatant was mixed with 500 μl of isopropanol and then put on ice for 10 minutes, the resulting supernatant was centrifuged at 12,000×g and 4° C. for 15 minutes to remove a supernatant, and then pellets were dissolved with tertiary distilled water treated with diethyl pyrocarbonate (DEPC). 2 μg of mRNA was synthesized into cDNA using a Superscript First Strand cDNA Synthesis Kit (Bioneer, Daejeon, South Korea) and the synthesized cDNA as a template was amplified through polymerase chain reaction (PCR) using primers specific to PPARγ2, 14-3-3β, 14-3-3γ, SREBP-1c, SCD-1, ACC, FABP, FAT/CD36, and β-actin of humans, and was amplified through real-time PCR using primers specific to PPARγ2, 14-3-3β, 14-3-3γ, SREBP-1c, FAT/CD36, and GAPDH of mice. β-actin and GAPDH were used as controls to see whether mRNAs of the respective cells were compared in the same amount.
HepG2 cells were seeded in a 6-well plate at a density of 4×10^5 cells per each well, and then transfected with GFP-14-3-3β DNA (4 μg) or GFP-14-3-3γ DNA (4 μg) using an E-fection plus reagent (Lugen). A ratio of DNA to the E-fection plus reagent was 1:2, and this method was performed according to a manufacturer's manual. After transfection, […], and for mRNA extraction, the corresponding cells were lysed with 1 ml/well of TRIzol (Invitrogen), 200 μl of chloroform was added thereto and mixed well, the resultant cells were maintained at room temperature for 5 minutes and then centrifuged at 12,000×g and 4° C. for 15 minutes, the obtained supernatant was mixed with 500 μl of isopropanol and then put on ice for 10 minutes, and the resulting supernatant was centrifuged at 12,000×g and 4° C. for 15 minutes to remove a supernatant, and then pellets were dissolved with tertiary distilled water treated with diethyl pyrocarbonate (DEPC). 2 μg of mRNA was synthesized into cDNA using a Superscript First Strand cDNA Synthesis Kit (Bioneer, Daejeon, South Korea) and the synthesized cDNA as a template was amplified through polymerase chain reaction (PCR) using primers specific to PPARγ2 (SEQ ID NOS: 1 and 2), 14-3-3β (SEQ ID NOS: 3 and 4), 14-3-3γ (SEQ ID NOS: 5 and 6), SREBP-1c, FAT/CD36, and β-actin of humans, and was amplified through real-time PCR using primers specific to SREBP-1c, FAT/CD36, and GAPDH of mice. β-actin and GAPDH were used as controls to see whether mRNAs of the respective cells were compared in the same amount.

HepG2 cells [2] = assay: Oil Red-O lipid accumulation in HepG2 cells; format: cell-based, human; conditions: for lipid accumulation by oleic acid: HepG2, overexpression, 200 μM oleic acid 72 hours, FIG. 9B
Procedure: (§1) HepG2 cells and primary mouse hepatocytes were separately seeded in a 6-well plate at a density of 4×10^5 cells per each well, and then transfected with GFP-14-3-3β DNA (1 μg) or GFP-14-3-3γ DNA (1 μg) and si-14-3-3β (10 μM, Santa Cruz) or si-14-3-3γ (10 μM, Santa Cruz) using an E-fection plus reagent (Lugen). A ratio of DNA to the E-fection plus reagent was 1:2, and this method was performed according to a manufacturer's manual. […] The stained cells were bleached with 1 ml of isopropanol and analyzed at a wavelength of 550 nm using a DU530 spectrophotometer (Beckman Instruments, Palo Alto, Calif.).

[3] = test system: primary mouse hepatocytes; assay: Oil Red-O lipid accumulation in primary mouse hepatocytes; format: cell-based; conditions: for lipid accumulation by oleic acid: overexpression, 200 μM oleic acid 72 hours, FIG. 9B
Procedure: as §1

[4] = test system: primary mouse hepatocytes; assay: Triglyceride colorimetric assay in primary mouse hepatocytes; format: cell-based; conditions: FIG. 10A
Procedure: HepG2 cells and primary mouse hepatocytes were separately seeded in a 6-well plate at a density of 4×10^5 cells per each well, and then transfected with GFP-14-3-3β DNA (1 μg) or GFP-14-3-3γ DNA (1 μg) and si-14-3-3β (10 μM, Santa Cruz) or si-14-3-3γ (10 μM, Santa Cruz) using an E-fection plus reagent (Lugen). A ratio of DNA to the E-fection plus reagent was 1:2, and this method was performed according to a manufacturer's manual. After transfection, the cells were treated with 200 μM of oleic acid (OA) for 72 hours, and the amount of triglycerides was measured using a triglyceride colorimetric assay kit (Cayman Chemical). The corresponding cells were washed with ice-cold PBS and then scraped using a standard diluent assay reagent, the scrapping process was repeated using a sonicator 20 times to lyse the cells, and the lysed cells were reacted with an enzyme buffer solution for 15 minutes, followed by measurement using an ELISA reader (Bio-Rad Laboratories, Inc) at a wavelength of 550 nm.

[5] = primary mouse hepatocytes, overexpression, 200 μM oleic acid 72 hours

Compound | mRNA expression of SREBP-1c and FAT/CD36 (HepG2 cells [1]) | lipid accumulation by oleic acid (HepG2 cells [2]) | lipid accumulation by oleic acid [3] | triglyceride accumulation [4, 5] | mRNA expression of PPARγ2 (HepG2 cells [1]; HepG2, oleic acid concentration-dependent, FIG. 6A) | mRNA expression of lipid metabolism-associated genes (PPARγ2 target genes) (HepG2 cells [1]; HepG2, oleic acid concentration-dependent, FIG. 6C) | mRNA expression amounts of 14-3-3β and 14-3-3γ (HepG2 cells [1]; HepG2, oleic acid treatment, FIG. 6A) | lipid accumulation (HepG2 cells [2]; HepG2, concentration-dependent treatment of oleic acid, FIG. 9A) | lipid accumulation ([3]; concentration-dependent treatment of oleic acid, FIG. 9A) | triglyceride accumulation ([4]; primary mouse hepatocytes treated with oleic acid)
14-3-3β: 14-3-3 isoform protein overexpressed by DNA transfection; increases the transcriptional activity of PPARγ2 by binding to PPARγ2 | further increased | increased | increased | further increased |  |  |  |  |  | 
14-3-3γ: 14-3-3 isoform protein overexpressed by DNA transfection; decreases the transcriptional activity of PPARγ2; proposed active ingredient | reduced | reduced | reduced | reduced |  |  |  |  |  | 
CCCCCCCC/C=C\CCCCCCCC(=O)O [oleic acid] |  |  |  |  | increased | increased | no changes | increased | increased | increased
